The target of assay [1] is T1, Son of Sevenless (SOS) (Homo sapiens, UniProt Q07889).
T1 sequence (Q07889 564-1049 limits assumed): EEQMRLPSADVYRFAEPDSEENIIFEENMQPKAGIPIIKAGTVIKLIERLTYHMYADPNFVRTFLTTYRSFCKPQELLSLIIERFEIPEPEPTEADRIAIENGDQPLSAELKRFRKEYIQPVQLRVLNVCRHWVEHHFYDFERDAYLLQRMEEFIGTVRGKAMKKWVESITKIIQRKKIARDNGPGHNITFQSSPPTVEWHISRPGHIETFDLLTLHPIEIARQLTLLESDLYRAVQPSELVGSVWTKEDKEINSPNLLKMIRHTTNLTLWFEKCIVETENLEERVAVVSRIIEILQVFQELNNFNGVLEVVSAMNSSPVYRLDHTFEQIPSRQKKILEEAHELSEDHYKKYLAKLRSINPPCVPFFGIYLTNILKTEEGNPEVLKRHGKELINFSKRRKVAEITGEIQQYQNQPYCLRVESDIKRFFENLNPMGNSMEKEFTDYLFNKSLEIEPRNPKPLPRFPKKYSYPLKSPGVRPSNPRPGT
In words: Binding to SOS, fluorescence polarization anisotropy (FPA) displacement of FITC-conjugated probe. Conditions: binding affinity calculated from IC50 of FITC-probe displacement, read-out: Binding affinities (binding affinity to SOS). The protocol: Compounds of the present invention were tested for their ability to the Ras guanine exchange factor (GEF) Son of Sevenless (SOS). Binding to SOS was measured using a Fluorescence polarization anisotropy (FPA) assay that assesses the ability of a test compound to displace a fluorescent FITC-conjugated compound. Briefly, the labeled probe compound is incubated with SOS in buffer. Changes in anisotropy indicative of displacement of the labeled probe for a test compound are assessed over a dose range of test compound. Data was analyzed by plotting fluorescence anisotropy values as a function of compound concentration. IC50 values were determined using a four-parameter dose-response (variable slope) and binding affinities were calculated from this IC50 value. This assay is performed in a method analogous to the assay disclosed in: Burns, M. C.; Sun, Q.; Daniels, R. N.; Camper, D. V.; Kennedy, J. P.; Phan, J.; Olejniczak, E. O.; Lee, T.; Waterson, A. G.; Rossanese, O. W.; Fesik, S. W. “Approach for targeting Ras with small molecules that activate SOS-mediated nucleotide exchange” Proc. Natl. Acad. Sci. 2014; 11(9): 3401-3406. PMCID: PMC3948241.

The target in assay [2] is T2, SOS-mediated nucleotide exchange on Ras (Homo sapiens, UniProt Q07889).
T2 sequence (Q07889 1-1333): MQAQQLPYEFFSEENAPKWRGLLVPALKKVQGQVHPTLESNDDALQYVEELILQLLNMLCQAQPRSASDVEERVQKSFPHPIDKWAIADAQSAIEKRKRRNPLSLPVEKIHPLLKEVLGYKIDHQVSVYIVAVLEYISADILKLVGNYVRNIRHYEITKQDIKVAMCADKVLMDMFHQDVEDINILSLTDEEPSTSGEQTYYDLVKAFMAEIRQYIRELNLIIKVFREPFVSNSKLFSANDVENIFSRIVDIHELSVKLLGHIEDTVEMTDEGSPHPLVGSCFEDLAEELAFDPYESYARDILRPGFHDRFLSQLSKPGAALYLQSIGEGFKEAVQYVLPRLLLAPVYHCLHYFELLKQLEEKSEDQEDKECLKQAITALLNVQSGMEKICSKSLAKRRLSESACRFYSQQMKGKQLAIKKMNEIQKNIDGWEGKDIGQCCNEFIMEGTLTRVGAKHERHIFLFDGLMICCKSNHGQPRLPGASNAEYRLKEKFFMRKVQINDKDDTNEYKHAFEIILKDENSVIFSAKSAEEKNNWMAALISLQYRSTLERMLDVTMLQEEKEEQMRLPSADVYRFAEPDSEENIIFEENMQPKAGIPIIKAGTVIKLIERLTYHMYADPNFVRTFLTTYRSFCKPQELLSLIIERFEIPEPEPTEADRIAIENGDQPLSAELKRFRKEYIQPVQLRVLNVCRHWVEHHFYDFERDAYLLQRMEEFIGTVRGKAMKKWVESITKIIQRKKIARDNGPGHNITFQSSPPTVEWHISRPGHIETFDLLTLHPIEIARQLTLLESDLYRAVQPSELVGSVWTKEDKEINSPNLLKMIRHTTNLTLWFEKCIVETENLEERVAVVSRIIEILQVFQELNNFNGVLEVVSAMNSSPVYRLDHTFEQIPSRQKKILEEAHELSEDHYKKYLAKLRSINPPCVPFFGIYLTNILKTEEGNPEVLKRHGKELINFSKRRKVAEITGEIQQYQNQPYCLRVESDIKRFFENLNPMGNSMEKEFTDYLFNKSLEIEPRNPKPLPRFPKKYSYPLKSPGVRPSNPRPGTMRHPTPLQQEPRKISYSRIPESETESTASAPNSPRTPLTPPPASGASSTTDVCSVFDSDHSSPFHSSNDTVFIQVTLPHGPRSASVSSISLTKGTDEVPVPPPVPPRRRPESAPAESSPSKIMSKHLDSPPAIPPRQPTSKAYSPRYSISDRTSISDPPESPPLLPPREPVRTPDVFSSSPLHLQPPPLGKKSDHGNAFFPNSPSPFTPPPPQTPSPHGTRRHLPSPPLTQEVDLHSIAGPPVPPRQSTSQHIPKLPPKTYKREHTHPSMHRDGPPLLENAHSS
Kind of assay: SOS-mediated nucleotide exchange on Ras (BODIPY-GDP fluorescence). It is filed as biochemical. Particulars: Ras loaded with BODIPY-GDP, GTP and SOS added; EC50 from derived exchange rates. Put shortly:
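Compound, then GTP and SOS, were added to buffered Ras preloaded with BODIPY-GDP, and the fluorescence change from labeled GDP being exchanged for GTP was followed over time. Rates came from single-exponential fits, and EC50 from a four-parameter fit of mean rate against compound concentration.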

A value given as a limit tells only on which side of the number the result lay.

The term EC50 denotes the concentration needed to bring the measured effect to its halfway point. High values mean a need for much substance, low ones an effect from little substance. On to `C[C@@H](Nc1nc(NCc2cccc(Cl)c2F)nc2c(CCN)cccc12)C(C)(C)C` [Example 85, (R)-8-(2-aminoethyl)-N^2-(3-chloro-2-fluorobenzyl)-N^4-(3,3-dimethylbutan-2-yl)quinazoline-2,4-diamine], for which, in assay [1], the Ki is 1 to 5 µM. In assay [2], this compound had a concentration giving a half-maximal response (EC50) of 5 to 30 µM.
As to `C[C@@H](Nc1nc(NCC2CCCCC2)nc2c(CN)cccc12)C(C)(C)C` [Example 86, (R)-8-(aminomethyl)-N^2-(cyclohexylmethyl)-N^4-(3,3-dimethylbutan-2-yl)quinazoline-2,4-diamine], the Ki in assay [1] is > 5 µM. In assay [2], this compound displayed a 50% effective concentration (EC50) of 5 to 30 µM.
On the same counts, the results for `C[C@@H](Nc1nc(NCc2cccc(Cl)c2F)nc2c(CN)cccc12)C(C)(C)C` [Example 87, (R)-8-(aminomethyl)-N^2-(3-chloro-2-fluorobenzyl)-N^4-(3,3-dimethylbutan-2-yl)quinazoline-2,4-diamine] are > 5 µM and 5 to 30 µM.
The matching figures for `Cc1cc(F)cc(Nc2nc(N[C@H](C)c3cccs3)c3cccc(C4=CCNCC4)c3n2)c1` [Example 89, (R)—N^2-(3-fluoro-5-methylphenyl)-8-(1,2,3,6-tetrahydropyridin-4-yl)-N^4-(1-(thiophen-2-yl)ethyl)quinazoline-2,4-diamine]: 1 to 5 µM and 1 to 5 µM.
The matching figures for `C[C@@H](Nc1nc(NCC2CCCCC2)nc2c(C3=CCNCC3)cccc12)c1cccs1` [Example 90, (R)—N^2-(cyclohexylmethyl)-8-(1,2,3,6-tetrahydropyridin-4-yl)-N^4-(1-(thiophen-2-yl)ethyl)quinazoline-2,4-diamine]: 1 to 5 µM and 1 to 5 µM.
For `C[C@@H](Nc1nc(Nc2ccc(F)c(Cl)c2)nc2c(CCN)cccc12)c1cccs1` [Example 91, (R)-8-(2-aminoethyl)-N^2-(3-chloro-4-fluorophenyl)-N^4-(1-(thiophen-2-yl)ethyl)quinazoline-2,4-diamine], the Ki in assay [1] was 1 to 5 µM. In addition, the EC50 in assay [2] was 5 to 30 µM.
On the same counts, the results for `Cc1cc(F)cc(Nc2nc(N[C@H](C)c3cccs3)c3cccc(CCN)c3n2)c1` [Example 92, (R)-8-(2-aminoethyl)-N^2-(3-fluoro-5-methylphenyl)-N^4-(1-(thiophen-2-yl)ethyl)quinazoline-2,4-diamine] are > 5 µM and 5 to 30 µM.
The matching figures for `C[C@@H](Nc1nc(NCC2CCCCC2)nc2c(CCN)cccc12)c1cccs1` [Example 93, (R)-8-(2-aminoethyl)-N^2-(cyclohexylmethyl)-N^4-(1-(thiophen-2-yl)ethyl)quinazoline-2,4-diamine]: < 1 µM and 5 to 30 µM.
On the same counts, the results for `C[C@@H](Nc1nc(NCc2cccc(Cl)c2F)nc2c(CCN)cccc12)c1cccs1` [Example 94, (R)-8-(2-aminoethyl)-N^2-(3-chloro-2-fluorobenzyl)-N^4-(1-(thiophen-2-yl)ethyl)quinazoline-2,4-diamine] are 1 to 5 µM and 1 to 5 µM.
As for `Cc1cc(F)cc(Nc2nc(N[C@H](C)c3cccs3)c3cccc(CN)c3n2)c1` [Example 95, (R)-8-(aminomethyl)-N^2-(3-fluoro-5-methylphenyl)-N^4-(1-(thiophen-2-yl)ethyl)quinazoline-2,4-diamine], the Ki in assay [1] is > 5 µM. For the same compound, the EC50 in assay [2] was 5 to 30 µM.
The matching figures for `C[C@@H](Nc1nc(NCc2cccc(Cl)c2F)nc2c(CN)cccc12)c1cccs1` [Example 97, (R)-8-(aminomethyl)-N^2-(3-chloro-2-fluorobenzyl)-N^4-(1-(thiophen-2-yl)ethyl)quinazoline-2,4-diamine]: > 5 µM and 5 to 30 µM.
For `C[C@@H](Nc1nc(NCC2CCCCCC2)nc2c(C3=CCNCC3)cccc12)C1CC1` [Example 103, (R)—N^2-(cycloheptylmethyl)-N^4-(1-cyclopropylethyl)-8-(1,2,3,6-tetrahydropyridin-4-yl)quinazoline-2,4-diamine], the Ki in assay [1] was > 5 µM. For the same compound, the EC50 in assay [2] is 5 to 30 µM.
The matching figures for `C[C@@H](Nc1nc(NCC2CCCC2)nc2c(C3=CCNCC3)cccc12)C1CC1` [Example 105, (R)—N^2-(cyclopentylmethyl)-N^4-(1-cyclopropylethyl)-8-(1,2,3,6-tetrahydropyridin-4-yl)quinazoline-2,4-diamine]: 1 to 5 µM and 1 to 5 µM.
On the same counts, the results for `C[C@@H](Nc1nc(NCC2CCC2)nc2c(C3=CCNCC3)cccc12)C1CC1` [Example 106, (R)—N^2-(cyclobutylmethyl)-N^4-(1-cyclopropylethyl)-8-(1,2,3,6-tetrahydropyridin-4-yl)quinazoline-2,4-diamine] are 1 to 5 µM and < 1 µM.
On the same counts, the results for `Cc1cc(F)cc(Nc2nc(N[C@H](C)C3CC3)c3cccc(C4=CCNCC4)c3n2)c1` [Example 107, (R)—N^4-(1-cyclopropylethyl)-N^2-(3-fluoro-5-methylphenyl)-8-(1,2,3,6-tetrahydropyridin-4-yl)quinazoline-2,4-diamine] are 1 to 5 µM and 1 to 5 µM.
For `Cc1cc(F)cc(Nc2nc(NC(C3CC3)C3CC3)c3cccc(C4=CCNCC4)c3n2)c1` [Example 108, N^4-(dicyclopropylmethyl)-N^2-(3-fluoro-5-methylphenyl)-8-(1,2,3,6-tetrahydropyridin-4-yl)quinazoline-2,4-diamine], the Ki in assay [1] was 1 to 5 µM. In assay [2], this compound gave a concentration giving a half-maximal response (EC50) of 1 to 5 µM.
`C[C@@H](Nc1nc(Nc2ccc(F)c(Cl)c2)nc2c(NCC3CNC3)cccc12)C1CC1` [Example 111, (R)—N^8-(azetidin-3-ylmethyl)-N^2-(3-chloro-4-fluorophenyl)-N^4-(1-cyclopropylethyl)quinazoline-2,4,8-triamine]: in assay [1], the Ki was > 5 µM. For the same compound, in assay [2], the half-maximal effective concentration (EC50) fell in the range of 5 to 30 µM.
On the same counts, the results for `C[C@@H](Nc1nc(Nc2ccc(F)c(Cl)c2)nc2c(NC3CNC3)cccc12)C1CC1` [Example 112, (R)—N^8-(azetidin-3-yl)-N^2-(3-chloro-4-fluorophenyl)-N-(1-cyclopropylethyl)quinazoline-2,4,8-triamine] are > 5 µM and 1 to 5 µM.

The values are drawn from patent US11318137B2, “Quinazoline compounds as modulators of Ras signaling” (VANDERBILT UNIVERSITY, priority 2017, dated 2022).
